Source: patent publication US20250352663A1 (priority 2022, published 2025)

What was measured:
human tumor cells = details: cited from earlier work
tumor = details: intraperitoneal injection of ATP (50 mM); cited from earlier work
B16-F10 melanoma cells = assay: B16-F10 cell growth / proliferation monitoring; type: cell-based; details: eATP, 2 mM, compared with AuNC@ATP 2.25 μM
[1] = tested on: human prostate cancer xenografts; details: daily intraperitoneal administration of ATP (25 mM); cited from earlier work

SMILES	growth of human tumor cells (cell cycle) (human tumor cells)	tumor size (tumor)	inhibiting B16-F10 cell proliferation (B16-F10 melanoma cells)	tumor regression [1]
Nc1ncnc2c1ncn2[C@@H]1O[C@H](COP(=O)(O)OP(=O)(O)O)[C@@H](O)[C@H]1O [ADP]	arrest of growth in the S phase	–	–	–
Nc1ncnc2c1ncn2[C@@H]1O[C@H](COP(=O)(O)OP(=O)(O)OP(=O)(O)O)[C@@H](O)[C@H]1O [free ATP, Adenosine triphosphate]	arrest of growth in the S phase	effectively reduced tumor size	does not achieve the same level of effectiveness	significant tumor regression
